Reference: PubChem BioAssay (NCI)
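Here, GI50 denotes the concentration required for 50% inhibition of growth. TGI: total growth inhibition.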

Key:
Experiment in all cases: inhibition of tumour cell growth, NCI panel, 384-well format
[1] = test system: RPMI-8226 leukemia
[2] = test system: SF-268 CNS
[3] = test system: IGROV1 ovarian
[4] = test system: NCI/ADR-RES ovarian
[5] = test system: NCI-H23 lung
[6] = test system: MDA-MB-231 breast
[7] = test system: HT29 colon
[8] = test system: HL-60(TB) leukemia
[9] = test system: 786-0 renal
[10] = test system: SNB-75 CNS
[11] = test system: A549 NSCLC
[12] = test system: M14 melanoma
[13] = test system: CAKI-1 renal
[14] = test system: COLO 205 colon
[15] = test system: OVCAR-8 ovarian
[16] = test system: OVCAR-5 ovarian
[17] = test system: MOLT-4 leukemia
[18] = test system: SW-620 colon
[19] = test system: PC-3 prostate
[20] = test system: SK-OV-3 ovarian
[21] = test system: NCI-H226 lung
[22] = test system: HOP-62 NSCLC
[23] = test system: SK-MEL-28 melanoma
[24] = test system: RXF 393 renal
[25] = test system: UACC-257 melanoma
[26] = test system: UO-31 renal
[27] = test system: SF-539 CNS
[28] = test system: BT-549 breast
[29] = test system: CCRF-CEM leukemia
[30] = test system: HS 578T breast
[31] = test system: SR leukemia
[32] = test system: LOX IMVI melanoma
[33] = test system: HCC-2998 colon
[34] = test system: SNB-19 CNS
[35] = test system: KM12 colon
[36] = test system: SK-MEL-5 melanoma
[37] = test system: MCF7 breast
[38] = test system: K-562 leukemia
[39] = test system: MALME-3M melanoma
[40] = test system: EKVX NSCLC
[41] = test system: TK-10 renal
[42] = test system: OVCAR-4 ovarian
[43] = test system: SN12C renal
[44] = test system: NCI-H460 NSCLC
[45] = test system: MDA-MB-468 breast
[46] = test system: OVCAR-3 ovarian
[47] = test system: SF-295 CNS
[48] = test system: MDA-MB-435 melanoma
[49] = test system: ACHN renal
[50] = test system: HOP-92 NSCLC
[51] = test system: T-47D breast
[52] = test system: A498 renal
[53] = test system: UACC-62 melanoma
[54] = test system: NCI-H522 lung
[55] = test system: NCI-H322M lung
[56] = test system: HCT-15 colon
[57] = test system: DU-145 prostate

SMILES: Cc1nc(-c2cnc(NC(C)C)n(C)c2=O)ccc1Oc1ccnc(-c2cnn(C)c2)c1
- GI50 [1]: 4.9 µM
- TGI [1]: 21.7 µM
- GI50 [2]: 19.8 µM
- TGI [2]: 64.1 µM
- GI50 [3]: 13.7 µM
- TGI [3]: 44.3 µM
- GI50 [4]: 5.77 µM
- TGI [4]: 19.3 µM
- GI50 [5]: 12.4 µM
- TGI [5]: 36 µM
- GI50 [6]: 16.4 µM
- TGI [6]: > 100 µM
- GI50 [7]: 7.73 µM
- TGI [7]: 34.7 µM
- GI50 [8]: 2.63 µM
- TGI [8]: 6.27 µM
- GI50 [9]: 18.3 µM
- TGI [9]: 61.4 µM
- GI50 [10]: 10.9 µM
- TGI [10]: 26.8 µM
- GI50 [11]: 23.3 µM
- TGI [11]: > 100 µM
- GI50 [12]: 7.99 µM
- TGI [12]: 27.3 µM
- GI50 [13]: 25.7 µM
- TGI [13]: > 100 µM
- GI50 [14]: 9.84 µM
- TGI [14]: 22.8 µM
- GI50 [15]: 14.6 µM
- TGI [15]: 28.4 µM
- GI50 [16]: 17.2 µM
- TGI [16]: 34.9 µM
- GI50 [17]: 1.87 µM
- TGI [17]: 3.56 µM
- GI50 [18]: 5.53 µM
- TGI [18]: 17.9 µM
- GI50 [19]: 21 µM
- TGI [19]: 60.3 µM
- GI50 [20]: 11.5 µM
- TGI [20]: 25.5 µM
- GI50 [21]: 19 µM
- TGI [21]: 90.7 µM
- GI50 [22]: 14.4 µM
- TGI [22]: 39.6 µM
- GI50 [23]: 14.5 µM
- TGI [23]: 69.5 µM
- GI50 [24]: 12.4 µM
- TGI [24]: 34.2 µM
- GI50 [25]: 17.2 µM
- TGI [25]: 57.1 µM
- GI50 [26]: 97.3 µM
- TGI [26]: > 100 µM
- GI50 [27]: 12.4 µM
- TGI [27]: 25.2 µM
- GI50 [28]: 14 µM
- TGI [28]: 81.1 µM
- GI50 [29]: 4.56 µM
- TGI [29]: 14.9 µM
- GI50 [30]: 13.6 µM
- TGI [30]: 29.2 µM
- GI50 [31]: 1.5 µM
- TGI [31]: 2.99 µM
- GI50 [32]: 17.9 µM
- TGI [32]: 71.6 µM
- GI50 [33]: 14.2 µM
- TGI [33]: 36.9 µM
- GI50 [34]: 21.3 µM
- TGI [34]: 68.6 µM
- GI50 [35]: 4.67 µM
- TGI [35]: 33.9 µM
- GI50 [36]: 4.46 µM
- TGI [36]: 16.2 µM
- GI50 [37]: 9.45 µM
- TGI [37]: > 100 µM
- GI50 [38]: 1.26 µM
- TGI [38]: 2.68 µM
- GI50 [39]: 7.48 µM
- TGI [39]: 36.5 µM
- GI50 [40]: 18.1 µM
- TGI [40]: > 100 µM
- GI50 [41]: 27.1 µM
- TGI [41]: > 100 µM
- GI50 [42]: 13.6 µM
- TGI [42]: 50.8 µM
- GI50 [43]: 14.5 µM
- TGI [43]: 28.3 µM
- GI50 [44]: 15.4 µM
- TGI [44]: 37.4 µM
- GI50 [45]: 2.73 µM
- TGI [45]: 6.33 µM
- GI50 [46]: 8.64 µM
- TGI [46]: 28 µM
- GI50 [47]: 15.6 µM
- TGI [47]: 62.7 µM
- GI50 [48]: 2.39 µM
- TGI [48]: 5.7 µM
- GI50 [49]: 27.2 µM
- TGI [49]: > 100 µM
- GI50 [50]: 19.5 µM
- TGI [50]: 68.6 µM
- GI50 [51]: 5.73 µM
- TGI [51]: 28.7 µM
- GI50 [52]: 13.2 µM
- TGI [52]: > 100 µM
- GI50 [53]: 6.42 µM
- TGI [53]: 24.6 µM
- GI50 [54]: 4.45 µM
- TGI [54]: 15.5 µM
- GI50 [55]: 23.5 µM
- TGI [55]: 73.4 µM
- GI50 [56]: 4.68 µM
- TGI [56]: 19.4 µM
- GI50 [57]: 30.1 µM
- TGI [57]: > 100 µM
